Read-outs that look alike come from different tables or passages of the source.
What was measured:
KK mice = test: Hypoglycemic effect in diabetic KK mice (Test Example 1); type: in vivo; details: Mus musculus, po, 72 h; male KK mice, diet admixture containing 0.03% of the compound, 3 days, plasma glucose vs control group; read-out: Hypoglycemic rate (%)
Excerpt: Six-week-old male KK mice were purchased from CLEA Japan, Inc. and then were fed until 15 to 20 weeks old to develop diabetes. The mice were individually fed during the adaptation period and the test period, and water and feed (FR2, Funabashi Farm) were freely ingested.
At the start of the experiment, after body weight measurement, blood was collected from the tail vein of the mice into a heparin-coated glass tube and centrifuged, and then plasma was separated. The glucose level in the plasma was measured by Glucoloader GXT (A&T Corp.), and individuals having a plasma glucose level of about 350 mg/dl or more were selected. The mice were grouped, each group having 3 to 4 mice, to make the average body weight and the average plasma glucose level similar. Each compound was administered to a compound group with a diet admixture containing 0.03% of the compound. A separate group in which the mice were fed only with diet was a control group.
The experiment period (drug administration period) was three days. The grouping day was the 0th day. On the 3rd day, the body weight was measured and blood was collected from the tail vein to measure the plasma glucose level.
The hypoglycemic rate was determined by the following formula.
Hypoglycemic rate=[(Control group blood glucose level−Compound-administered group blood glucose level)/Control group blood glucose level]×100

Rat white adipocytes [1] = test: Adipocyte differentiation inhibition test (Test Example 3); type: cell-based; details: with Compound A 3.3 nM, 5 days, Oil Red O ABS550, N.D. denotes not calculable; for IC50: Adipocyte, 120 h
Procedure: (§1) Rat white adipocytes included in a white adipocyte culture kit purchased from Primary Cell Co., Ltd. were subjected to this test. A medium included in the white adipocyte culture kit purchased from Primary Cell Co., Ltd. was used as a growth medium or a differentiation-inducing medium.
(§2) The whole of the transportation medium was extracted immediately after the arrival of the purchased cells. The growth medium was added in an amount of 5 ml(/25 cm^2-flask), and the cells were cultured for one day. Thereafter, a cell suspension (83,000 cells/mL) was prepared using the growth medium. The cell suspension was dispensed to a 96-well type-I collagen-coated microplate (Becton, Dickinson and Company) at 5,000 to 6,000 cells/well (60 μL/well). A well to which only the growth medium not containing cells was dispensed (blank well) was provided as a blank group in each plate.
3) For the negative control group, DMSO diluted 20-fold with the differentiation-inducing medium was added at 3 μL/well (final DMSO concentration: 0.1% (v/v)) to the wells into which the cells were seeded.
(§3) After culturing for five days, the whole of the differentiation-inducing medium was removed from each well, and 60 μL of a 10% (v/v) formaldehyde solution (fixative solution) was added to each well. The cells were incubated at room temperature for 20 minutes. The whole of the fixative solution was removed and 60 μL of a 0.2% (v/v) Triton X-100 solution (Sigma) was dispensed to each well. The cells were incubated at room temperature for five minutes. The whole of the Triton X-100 solution was removed. A fat stain was prepared by dissolving Oil Red 0 (Sigma) in a 60% (v/v) isopropanol solution at 0.3% (w/v), and 60 μL of the fat stain was dispensed to each well. The cells were incubated at room temperature for 10 minutes. The whole of the fat stain was removed, and then 60 μL of a 60% (v/v) isopropanol solution was dispensed and removed. Thus, each well was washed twice. Thereafter, DMSO was added to each well at 100 μL per well, followed by stirring at room temperature for five minutes. […] The degree of adipocyte differentiation (%) of the test compound-added group was calculated assuming that the measured ABS550 of the positive control group was 100% and the measured ABS550 of the negative control group was 0.
N.D. denotes not calculable.

Rat white adipocytes [2] = test: Adipocyte differentiation promotion test (Test Example 4); type: cell-based; details: for EC50: 120 h
Procedure: as §1
as §2, with “(SUMITOMO BAKELITE Co., Ltd.)” for “(Becton, Dickinson and Company)”, “5,000” for “5,000 to 6,000”
Further, 1) for the test compound-added group, a 100 μM solution of the test compound in DMSO was diluted 20-fold with the differentiation-inducing medium; this was added at 3 μL/well (final test compound concentration: 100 nM, final DMSO concentration: 0.1% (v/v)) to the wells into which the cells were seeded. […] 3) For the negative control group, DMSO diluted 20-fold with the differentiation-inducing medium was added at 3 μL/well (final DMSO concentration: 0.1% (v/v)) to the wells into which the cells were seeded.
as §3

[3] = Adipocyte, rat white adipocytes, test compound alone, 5 days, Oil Red O ABS550, read-out: EC50
[4] = Rattus norvegicus, degree of adipocyte differentiation, positive control (Compound A 3.3 nM) 100%, negative control 0, read-out: Emax (%)

IC50 (Rat white adipocytes [1]) | EC50 (Rat white adipocytes [2]; [3]) | melting point | SMILES | inhibition in vivo at 0.03 % in diet (KK mice) | Imax (%) (Rat white adipocytes [1]) | Emax (Rat white adipocytes [2]; [4]) | Emax (Rat white adipocytes [2]; Rattus norvegicus, Adipocyte) | EC50 (Rat white adipocytes [2]; Rattus norvegicus, Adipocyte)
12 nM | 4.2 nM | 235 to 239 °C | Cc1cc(Oc2ccc3nc(COc4cccc(C(=O)O)c4)n(C)c3c2)cc(C)c1N.Cl.Cl [Example 2, 3-{[6-(4-Amino-3,5-dimethylphenoxy)-1-methyl-1H-benzimidazol-2-yl]methoxy}benzoic acid dihydrochloride] | 37% | −33% | 73% | – | –
53 nM | 7.4 nM | – | Cl.Cn1c(COc2cccc(C(=O)O)c2)nc2ccc(Oc3cccc(F)c3)cc21 [Example 8, 3-{[6-(3-Fluorophenoxy)-1-methyl-1H-benzimidazol-2-yl]methoxy}benzoic acid hydrochloride] | 29% | −29% | 75% | – | –
45 nM | 6.6 nM | – | Cl.Cn1c(COc2cccc(C(=O)O)c2)nc2ccc(Oc3ccc(Cl)c(F)c3)cc21 [Example 10, 3-{[6-(4-Chloro-3-fluorophenoxy)-1-methyl-1H-benzimidazol-2-yl]methoxy}benzoic acid hydrochloride] | 35% | −29% | 78% | – | –
– | 5.2 nM | – | Cl.Cn1c(COc2cccc(C(=O)O)c2)nc2ccc(Oc3ccc(F)c(Cl)c3)cc21 [Example 12, 3-{[6-(3-Chloro-4-fluorophenoxy)-1-methyl-1H-benzimidazol-2-yl]methoxy}benzoic acid hydrochloride] | 30% | – | 82% | – | –
– | – | – | Cl.Cn1c(COc2cccc(C(=O)O)c2)nc2ccc(Oc3ccccc3)cc21 [Example 14, 3-[(1-Methyl-6-phenoxy-1H-benzimidazol-2-yl)methoxy]benzoic acid hydrochloride] | 33% | – | – | 56% | 20 nM
– | 64 nM | – | Cl.Cl.Cn1c(COc2cccc(C(=O)O)c2)nc2ccc(Oc3ccccc3)nc21 [Example 16, 3-[(3-Methyl-5-phenoxy-3H-imidazo[4,5-b]pyridin-2-yl)methoxy]benzoic acid dihydrochloride] | 60% | – | 71% | – | –
